For four molecules, IC50 results are on record in BindingDB's records for PubMed 35033884 (Indian Institute of Technology (B.H.U.), 2022).

The structures appear in SMILES notation.

The IC50 is the point on the concentration scale where inhibition reaches its midpoint.

The nature of the test: Inhibition of PDK1 (unknown origin).
The molecule `NC(=O)Nc1ccc2c(c1)/C(=C/c1ccc[nH]1)C(=O)N2` [indolinone based inhibitor, 3l] had an IC50 of 20 nM.
In the case of `C/C(=C1/C(=O)Nc2ccc(NC(N)=O)cc21)c1cc(CNC(=O)C2CCNCC2)c[nH]1` [N-[(5-{1-[(3Z)-5-(carbamoylamino)-2-oxo-2,3-dihydro-1H-indol-3-ylidene]ethyl}-1H-pyrrol-3-yl)methyl]piperidine-4-carboxamide], the IC50 was determined as 6 nM. Compared with the last molecule, the IC50 is about 3.3-fold lower.
For the molecule `NC(=O)Nc1ccc2c(c1)/C(=C/c1cc(-c3ccccn3)c[nH]1)C(=O)N2`, the IC50 is 8 nM. This IC50 and that of the molecule before are within 1.5-fold of each other.
The same measure for `CN(C)CCNC(=O)c1cccc(-c2c[nH]c(/C=C3\C(=O)Nc4ccc(NC(N)=O)cc43)c2)c1` [3-(5-{[(3Z)-5-(carbamoylamino)-2-oxo-2,3-dihydro-1H-indol-3-ylidene]methyl}-1H-pyrrol-3-yl)-N-[2-(dimethylamino)ethyl]benzamide]: 4 nM.
